From ChEMBL document CHEMBL4680140, “Minor chemical modifications of the aminosteroid derivative RM-581 lead to major impact on its anticancer activity, metabolic stability and aqueous solubility” (Eur J Med Chem, 2020) come the findings set out here.

The structures appear in SMILES notation. Activity calls are given as the source filed them. The rule behind the calls is not given here.

The subject of data set [1] is LAPC4. As to the kind of experiment: Antiproliferative activity against human LAPC4 cells assessed as reduction in cell viability at 1 to 5 uM after 72 hrs by MTS assay. The following applies: dose 1-5 µM. In kind it is functional, cell-based. (Formazan colour is commonly taken as a measure of viable cells.)
The test system of data set [2] is T47D. In words: Antiproliferative activity against human T47D cells assessed as reduction in cell viability at 1 to 5 uM after 72 hrs by MTS assay. Particulars: dose 1-5 µM. In kind it is functional, cell-based.
Data set [3] relates to MCF7. As to the kind of experiment: Antiproliferative activity against human MCF7 cells assessed as reduction in cell viability at 1 to 5 uM after 72 hrs by MTS assay. The class given is functional, cell-based. Particulars: dose 1-5 µM.
Data set [4] deals with PANC-1. In words: Antiproliferative activity against human PANC-1 cells assessed as reduction in cell viability at 1 to 5 uM after 72 hrs by MTS assay. In kind it is functional, cell-based. Particulars: dose 1-5 µM.
Another data set has as its system BXPC-3. As to the kind of experiment: Antiproliferative activity against human BXPC-3 cells assessed as reduction in cell viability at 1 to 5 uM after 72 hrs by MTS assay. In kind it is functional, cell-based. Particulars: dose 1-5 µM.
For another data set, the system named is Hs 766. In words: Antiproliferative activity against human Hs 766 cells assessed as reduction in cell viability at 1 to 5 uM after 72 hrs by MTS assay. The class given is functional, cell-based. Particulars: dose 1-5 µM.
The subject of data set [5] is OVCAR-3. In words: Antiproliferative activity against human OVCAR-3 cells assessed as reduction in cell viability at 1 to 5 uM after 72 hrs by MTS assay. The class given is functional, cell-based. The following applies: dose 1-5 µM.
The test system of another data set is Caov-3 cell line. In words: Antiproliferative activity against human Caov-3 cells assessed as reduction in cell viability at 1 to 5 uM after 72 hrs by MTS assay. The class given is functional, cell-based. Particulars: dose 1-5 µM.
For the next data set, the system named is SK-OV-3. In words: Antiproliferative activity against human SK-OV-3 cells assessed as reduction in cell viability at 1 to 5 uM after 72 hrs by MTS assay. The class given is functional, cell-based. The following applies: dose 1-5 µM.
In a further data set the test system is PC-3. As to the kind of experiment: Antiproliferative activity against human PC-3 cells assessed as reduction in cell viability after 72 hrs by MTS assay. In kind it is functional, cell-based. Particulars: PC-3, 72 h.
The subject of data set [6] is LAPC4. In words: Antiproliferative activity against human LAPC4 cells assessed as reduction in cell viability after 72 hrs by MTS assay. In kind it is functional, cell-based. The following applies: LAPC4, 72 h.
A further data set deals with LNCaP. As to the kind of experiment: Antiproliferative activity against human LNCaP cells assessed as reduction in cell viability after 72 hrs by MTS assay. In kind it is functional, cell-based.
Data set [7] has as its system MCF7. As to the kind of experiment: Antiproliferative activity against human MCF7 cells assessed as reduction in cell viability after 72 hrs by MTS assay. The following applies: MCF7, 72 h. In kind it is functional, cell-based.
Data set [8] has as its system T47D. In words: Antiproliferative activity against human T47D cells assessed as reduction in cell viability after 72 hrs by MTS assay. The class given is functional, cell-based.
The subject of data set [9] is OVCAR-3. As to the kind of experiment: Antiproliferative activity against human OVCAR-3 cells assessed as reduction in cell viability after 72 hrs by MTS assay. In kind it is functional, cell-based. The following applies: OVCAR-3, 72 h.
Data set [10] has as its system PANC-1. In words: Antiproliferative activity against human PANC-1 cells assessed as reduction in cell viability after 72 hrs by MTS assay. In kind it is functional, cell-based. Particulars: PANC-1, 72 h.
Data set [11] in a line: Stability in human liver s9 fraction assessed as parent compound remaining at 10 uM after 1 hr by LC-MS analysis. In kind it is ADME, subcellular. The following applies: read-out: Stabilty.

`C#C[C@]1(O)CC[C@H]2[C@@H]3CCc4cc(OC)c(CN5CCN(C(=O)[C@@H]6CCCN6C(=O)c6ccc7ccccc7n6)CC5)cc4[C@H]3CC[C@@]21C`: the outcome with LAPC4 [1], in the data set with T47D [2], with MCF7 [3], with PANC-1 [4], in the data set on BXPC-3 and in the data set with Hs 766 was Active. The outcome in the data set on OVCAR-3 [5], with Caov-3 cell line and in the data set on SK-OV-3 was Active. Moreover, the IC50 with PC-3 turned out to be 1.7 µM; in the data set on LAPC4 [6], 0.7 µM; in the data set with LNCaP it was 1.3 µM; in the data set with MCF7 [7], 2.3 µM; in the data set with T47D [8], 0.4 µM; in the data set with OVCAR-3 [9], 5 µM. The half-inhibitory concentration (IC50) in the data set with PANC-1 [10] came out at 2.6 µM. Further, in [11], the remaining at 1 h, 10 µM came to 76%.

As to `C#C[C@]1(O)CC[C@H]2[C@@H]3CCc4cc(C(C)=O)c(N5CCN(C(=O)[C@@H]6CCCN6C(=O)c6ccc7ccccc7n6)CC5)cc4[C@H]3CC[C@@]21C`, the result in the data set on LAPC4 [1], in the data set with T47D [2], in the data set with MCF7 [3], with PANC-1 [4], with BXPC-3 and in the data set with Hs 766 was inactive. Further, the outcome with OVCAR-3 [5], with Caov-3 cell line and with SK-OV-3 was inactive. Further, in [11], the remaining at 1 h, 10 µM came out at 52%.

As to `C#C[C@]1(O)CC[C@H]2[C@@H]3CCc4cc(OC)c(C(=O)N5CCN(C(=O)[C@@H]6CCCN6C(=O)c6ccc7ccccc7n6)CC5)cc4[C@H]3CC[C@@]21C`, the result in the data set with LAPC4 [1], in the data set with T47D [2], in the data set with MCF7 [3], with PANC-1 [4], with BXPC-3 and in the data set with Hs 766 was Active. In addition, the result in the data set with OVCAR-3 [5], in the data set on Caov-3 cell line and with SK-OV-3 was Active. Besides, the IC50 in the data set with PC-3 amounted to 1.7 µM; with LAPC4 [6], 0.5 µM; in the data set with LNCaP, 0.8 µM; with MCF7 [7], 2.2 µM; with T47D [8] it was 0.3 µM; in the data set with OVCAR-3 [9] it was 5.2 µM. In addition, the IC50 in the data set with PANC-1 [10] worked out at 3.5 µM. For the same molecule, the remaining at 1 h, 10 µM in [11] amounted to 52%.

For `C#Cc1cc2c(cc1N1CCN(C(=O)[C@@H]3CCCN3C(=O)c3ccc4ccccc4n3)CC1)[C@H]1CC[C@@]3(C)[C@@H](CC[C@@]3(O)C#C)[C@@H]1CC2`, the remaining at 1 h, 10 µM in data set [11] was 52%.

With `CC(=O)O[C@H]1C(=O)[C@@]2(C)[C@H]([C@H](OC(=O)c3ccccc3)[C@]3(O)C[C@H](OC(=O)[C@H](O)[C@@H](NC(=O)c4ccccc4)c4ccccc4)C(C)=C1C3(C)C)[C@]1(OC(C)=O)CO[C@@H]1C[C@@H]2O`, in the data set with T47D [2], the outcome was Active.

As for `CCc1c2c(nc3ccc(OC(=O)N4CCC(N5CCCCC5)CC4)cc13)-c1cc3c(c(=O)n1C2)COC(=O)[C@]3(O)CC`, the result in the data set with T47D [2] was Active.

Turning to `Nc1ccn([C@@H]2O[C@H](CO)[C@@H](O)C2(F)F)c(=O)n1`, in the data set on T47D [2], the outcome was Active.

In the case of `O=c1[nH]cc(F)c(=O)[nH]1`, the outcome in the data set with T47D [2] was Active.

With `C#CC1(O)CC[C@H]2[C@@H]3CCc4cc(OC(=O)N(C)C)c(N5CCN(C(=O)[C@@H]6CCCN6C(=O)c6ccc7ccccc7n6)CC5)cc4[C@H]3CC[C@@]21C` (single isomer, unassigned), the result in the data set with LAPC4 [1], in the data set with T47D [2], in the data set with MCF7 [3], with PANC-1 [4], in the data set with BXPC-3 and in the data set on Hs 766 was inactive. Further, the outcome with OVCAR-3 [5], in the data set with Caov-3 cell line and in the data set on SK-OV-3 was inactive. In data set [11], the remaining at 1 h, 10 µM is 52%.

On to `C#CC1(O)CC[C@H]2[C@@H]3CCc4cc(OC(C)=O)c(N5CCN(C(=O)[C@@H]6CCCN6C(=O)c6ccc7ccccc7n6)CC5)cc4[C@H]3CC[C@@]21C` (single isomer, unassigned), for which the result in the data set with LAPC4 [1], with T47D [2], with MCF7 [3], with PANC-1 [4], in the data set on BXPC-3 and in the data set on Hs 766 was Active. In addition, the outcome with OVCAR-3 [5], in the data set with Caov-3 cell line and in the data set with SK-OV-3 was Active. In addition, the IC50 was 1.4 µM in the data set with PC-3; 0.5 µM with LAPC4 [6]; 0.8 µM in the data set on LNCaP; 1.4 µM in the data set with MCF7 [7]; 0.4 µM with T47D [8]; 3.9 µM in the data set with OVCAR-3 [9]. In addition, the IC50 in the data set with PANC-1 [10] worked out at 2.8 µM. In [11], the remaining at 1 h, 10 µM worked out at 76%.

On to `C#CC1(O)CC[C@H]2[C@@H]3CCc4cc(OC(=O)N(CC)CC)c(N5CCN(C(=O)[C@@H]6CCCN6C(=O)c6ccc7ccccc7n6)CC5)cc4[C@H]3CC[C@@]21C` (single isomer, unassigned), for which the outcome in the data set with LAPC4 [1], in the data set on T47D [2], in the data set on MCF7 [3], with PANC-1 [4], with BXPC-3 and in the data set on Hs 766 was inactive. The outcome with OVCAR-3 [5], with Caov-3 cell line and in the data set on SK-OV-3 was inactive. Moreover, the remaining at 1 h, 10 µM in data set [11] was 52%.

Take `C#CC1(O)CC[C@H]2[C@@H]3CCc4ccc(N5CCN(C(=O)[C@@H]6CCCN6C(=O)c6ccc7ccccc7n6)CC5)cc4[C@H]3CC[C@@]21C` (single isomer, unassigned): the result with LAPC4 [1], with T47D [2], in the data set with MCF7 [3], in the data set with PANC-1 [4], in the data set on BXPC-3 and in the data set on Hs 766 was inactive. The outcome in the data set with OVCAR-3 [5], in the data set on Caov-3 cell line and with SK-OV-3 was inactive. The remaining at 1 h, 10 µM in data set [11] amounted to 35%.

As for `C#CC1(O)CC[C@H]2[C@@H]3CCc4cc(C(C)O)c(N5CCN(C(=O)[C@@H]6CCCN6C(=O)c6ccc7ccccc7n6)CC5)cc4[C@H]3CC[C@@]21C` (single isomer, unassigned), the result in the data set with LAPC4 [1], in the data set with T47D [2], with MCF7 [3], in the data set on PANC-1 [4], in the data set on BXPC-3 and in the data set on Hs 766 was inactive. Also, the outcome in the data set on OVCAR-3 [5], in the data set with Caov-3 cell line and with SK-OV-3 was inactive. For the same molecule, the remaining at 1 h, 10 µM in [11] worked out at 35%.

As to `C#CC1(O)CC[C@H]2[C@@H]3CCc4cc(OS(N)(=O)=O)c(N5CCN(C(=O)[C@@H]6CCCN6C(=O)c6ccc7ccccc7n6)CC5)cc4[C@H]3CC[C@@]21C` (single isomer, unassigned), the outcome with LAPC4 [1], in the data set with T47D [2], in the data set on MCF7 [3], in the data set on PANC-1 [4], in the data set with BXPC-3 and in the data set on Hs 766 was Active. The result in the data set with OVCAR-3 [5], in the data set on Caov-3 cell line and with SK-OV-3 was Active. Also, the IC50 came out at 1.6 µM in the data set on PC-3; 0.3 µM in the data set on LAPC4 [6]; 0.9 µM in the data set on LNCaP; 1.2 µM in the data set with MCF7 [7]; 0.2 µM in the data set on T47D [8]; 3.1 µM in the data set on OVCAR-3 [9]. In the data set with PANC-1 [10], the IC50 was 3 µM. For the same molecule, the remaining at 1 h, 10 µM in [11] came to 35%.

Consider `C#CC1(O)CC[C@H]2[C@@H]3CCc4cc(O)c(N5CCN(C(=O)[C@@H]6CCCN6C(=O)c6ccc7ccccc7n6)CC5)cc4[C@H]3CC[C@@]21C` (single isomer, unassigned), for which the result in the data set with LAPC4 [1], in the data set with T47D [2], with MCF7 [3], in the data set on PANC-1 [4], in the data set on BXPC-3 and with Hs 766 was Active. For the same molecule, the result in the data set with OVCAR-3 [5], in the data set on Caov-3 cell line and with SK-OV-3 was Active. Moreover, the IC50 in the data set on PC-3 came to 1.4 µM; in the data set on LAPC4 [6], 0.4 µM; in the data set on LNCaP, 1.1 µM; in the data set with MCF7 [7], 1.4 µM; in the data set with T47D [8], 0.5 µM; with OVCAR-3 [9] it was 4.4 µM. Further, the IC50 with PANC-1 [10] amounted to 3.1 µM. In addition, the remaining at 1 h, 10 µM in [11] worked out at 35%.

By IC50 is commonly meant the midpoint of a concentration-inhibition curve.
